Measured values as given in patent US20130158362A1 (INFACARE PHARMACEUTICAL CORPORATION, priority 2011, published 2013).

System: total serum bilirubin (TSB)
Assay: Phase 2b trial: total serum bilirubin (TSB), adjusted and unadjusted, change from baseline
Format: in vivo, human
Set-up: total serum bilirubin / total serum bilirubin, Delta (change from baseline) / Change from baseline of total serum bilirubin: unit not given here
Conditions: for change from baseline in unadjusted TSB, Mean (SD) / change from baseline in unadjusted TSB, Median / unadjusted TSB, Mean (SD) / unadjusted TSB, Median / change from baseline in adjusted TSB, LS mean (SEM) / change from baseline in adjusted TSB, LS mean difference versus placebo / change from baseline in unadjusted TSB, LS Mean (SEM) / change from baseline in unadjusted TSB, LS Mean Difference versus placebo / adjusted TSB, Mean (SD) / change from baseline in adjusted TSB, Mean (SD) / change from baseline in adjusted TSB, Median / change from baseline in adjusted TSB, LS mean difference versus placebo, MMRM / change from baseline in adjusted TSB, LS means (SEM), MMRM: ITT; for Change from baseline of total serum bilirubin: 4.5 mg/kg (N = 5); for change from baseline in adjusted TSB, LS mean difference versus placebo, MMRM / change from baseline in adjusted TSB, LS means (SEM), MMRM: observed case
Experimental: Three cohorts of subjects were recruited. This clinical study was designed to evaluate safety and efficacy parameters in each cohort.
Scheduled assessments (including TSB) occurred before treatment and at 0.75 and 2 hours (or 1.5 and 3 hours, depending on PK blood sampling assignment); 6, 12, 24, 48, and 72 hours; and 14 and 30 (except TSB) days after treatment or early termination.
The primary efficacy endpoint was the change in adjusted TSB from baseline to 48 hours after treatment. The adjusted TSB was a calculation of the percentage variance of the TSB level from the age specific threshold for PT initiation per the AAP Guidelines, i.e., an indication of the distance below the PT threshold by time.
The Secondary Efficacy Endpoints were the change from baseline in unadjusted TSB at 48 hours after treatment, change from baseline in adjusted and unadjusted TSB at various other time points after treatment, percent change from baseline in unadjusted TSB, proportion of subjects who require PT/exchange transfusion (ET), time to PT/ET, duration of PT and time to hospital discharge.
Intent-to-treat population (ITT): Defined as all subjects who were randomly assigned treatment in the clinical study, had received IMP, and had at least 1 post baseline TSB measurement during the first 48 hours after treatment. Subjects were summarized based on randomized treatment.
Analysis of Efficacy Parameters: The primary efficacy analysis applied the analysis of covariance (ANCOVA) method to determine if there was a significant difference between treatment groups in change in adjusted TSB levels from baseline to 48 hours post baseline after controlling for the effects of gestational age and adjusted baseline TSB levels. If assumptions of ANCOVA appeared to be violated, a Wilcoxon rank-sum test could be performed instead. Time-to-event variables were analyzed using the Kaplan-Meier method, and Kaplan-Meier survival curves were presented.

[1] = 3.0 mg/kg IM, 72 h, LOCF, ANCOVA
[2] = 3.0 mg/kg IM, 14 days/early termination, LOCF
[3] = 3.0 mg/kg IM, 14 days/early termination, LOCF, ANCOVA
[4] = 3.0 mg/kg versus the placebo group, 48 Hours/Early termination, PP Population, ANCOVA
[5] = 3.0 mg/kg, 48 Hours/Early termination, PP Population, LOCF
[6] = 3.0 mg/kg, 6 hrs, unadjusted TSB, ITT Population
[7] = 3.0 mg/kg, 12 hrs, unadjusted TSB, ITT Population
[8] = 3.0 mg/kg, 24 hrs, unadjusted TSB, ITT Population
[9] = 3.0 mg/kg, 48 hrs, unadjusted TSB, ITT Population
[10] = 3.0 mg/kg, baseline, PP Population
[11] = 3.0 mg/kg, baseline, unadjusted TSB, ITT Population
[12] = 4.5 mg/kg IM, 6 h, LOCF, ANCOVA
[13] = 4.5 mg/kg IM, 12 h, LOCF, ANCOVA

tin IV mesoporphyrin IX dichloride [Stannsoporfin]
change from baseline in unadjusted TSB, Mean (SD) (3.0 mg/kg IM, 72 h, LOCF): 1.66 (3.496) mg/dL | change from baseline in unadjusted TSB, Median (3.0 mg/kg IM, 72 h, LOCF): 2.45 mg/dL | unadjusted TSB, Mean (SD) (3.0 mg/kg IM, 72 h, LOCF): 9.87 (3.681) mg/dL | unadjusted TSB, Median (3.0 mg/kg IM, 72 h, LOCF): 10.70 mg/dL | change from baseline in adjusted TSB, LS mean (SEM) [1]: −19.28 (6.633) % | change from baseline in adjusted TSB, LS mean difference versus placebo [1]: −14.53% | change from baseline in unadjusted TSB, LS Mean (SEM) [1]: 2.77 (1.133) mg/dL | change from baseline in unadjusted TSB, LS Mean Difference versus placebo [1]: -2.18 mg/dL | change from baseline in unadjusted TSB, Mean (SD) [2]: −2.98 (5.389) mg/dL | change from baseline in unadjusted TSB, Median [2]: -4.80 mg/dL | unadjusted TSB, Mean (SD) [2]: 5.23 (5.123) mg/dL | unadjusted TSB, Median [2]: 3.40 mg/dL | change from baseline in unadjusted TSB, LS Mean (SEM) [3]: −2.42 (1.324) mg/dL | change from baseline in unadjusted TSB, LS Mean Difference versus placebo [3]: -0.12 mg/dL | 48 Hours/Early termination change from baseline in unadjusted TSB, LS mean difference [4]: -1.74 mg/dL | P-value of LS mean difference, change from baseline in unadjusted TSB [4]: 0.078 | 48 Hours/Early termination change from baseline in unadjusted TSB, Max [5]: 5.4 mg/dL | 48 Hours/Early termination change from baseline in unadjusted TSB, Mean (SD) [5]: 2.20 (2.928) mg/dL | 48 Hours/Early termination change from baseline in unadjusted TSB, Median [5]: 2.87 mg/dL | 48 Hours/Early termination change from baseline in unadjusted TSB, Min [5]: -3.4 mg/dL | 48 Hours/Early termination unadjusted TSB, Max [5]: 13.8 mg/dL | 48 Hours/Early termination unadjusted TSB, Mean (SD) [5]: 10.53 (2.911) mg/dL | 48 Hours/Early termination unadjusted TSB, Median [5]: 11.60 mg/dL | 48 Hours/Early termination unadjusted TSB, Min [5]: 4.2 mg/dL | 48 Hours/Early termination change from baseline in unadjusted TSB, LS mean (SEM) (3.0 mg/kg, 48 Hours/Early termination, PP Population, LOCF, ANCOVA): 2.20 (0.881) mg/dL | 6 hrs Percent Change from Baseline in TSB, Max [6]: 59.0% | 6 hrs Percent Change from Baseline in TSB, Mean (SD) [6]: 19.54 (12.055) % | 6 hrs Percent Change from Baseline in TSB, Min [6]: −2.6% | 6 hrs TSB, Max [6]: 12.3 mg/dL | 6 hrs TSB, Mean (SD) [6]: 9.74 (1.730) mg/dL | 6 hrs TSB, Min [6]: 6.8 mg/dL | 12 hrs Percent Change from Baseline in TSB, Max [7]: 73.8% | 12 hrs Percent Change from Baseline in TSB, Mean (SD) [7]: 26.17 (15.650) % | 12 hrs Percent Change from Baseline in TSB, Min [7]: 0.0% | 12 hrs TSB, Max [7]: 12.2 mg/dL | 12 hrs TSB, Mean (SD) [7]: 10.26 (1.748) mg/dL | 12 hrs TSB, Min [7]: 6.9 mg/dL | 24 hrs Percent Change from Baseline in TSB, Max [8]: 86.9% | 24 hrs Percent Change from Baseline in TSB, Mean (SD) [8]: 24.84 (23.900) % | 24 hrs Percent Change from Baseline in TSB, Median [8]: 23.00% | 24 hrs Percent Change from Baseline in TSB, Min [8]: −11.8% | 24 hrs TSB, Max [8]: 11.9 mg/dL | 24 hrs TSB, Mean (SD) [8]: 10.06 (1.757) mg/dL | 24 hrs TSB, Min [8]: 6.7 mg/dL | 48 hrs Percent Change from Baseline in TSB, Max [9]: 88.5% | 48 hrs Percent Change from Baseline in TSB, Mean (SD) [9]: 31.84 (36.062) % | 48 hrs Percent Change from Baseline in TSB, Min [9]: −44.7% | 48 hrs TSB, Max [9]: 14.1 mg/dL | 48 hrs TSB, Mean (SD) [9]: 10.68 (2.956) mg/dL | 48 hrs TSB, Min [9]: 4.2 mg/dL | mean TSB levels (3.0 mg/kg, 14 days after treatment (text, not LOCF table)): 5.23 mg/dL | Baseline unadjusted TSB, Max [10]: 10.4 mg/dL | Baseline unadjusted TSB, Mean (SD) [10]: 8.33 (1.585) mg/dL | Baseline unadjusted TSB, Median [10]: 8.90 mg/dL | Baseline unadjusted TSB, Min [10]: 6.0 mg/dL | Baseline TSB, Max [11]: 10.4 mg/dL | Baseline TSB, Mean (SD) [11]: 8.21 (1.577) mg/dL | Baseline TSB, Min [11]: 5.5 mg/dL | Change from baseline of total serum bilirubin (6 hours, preliminary data): 1.69 ± 0.50 | Change from baseline of total serum bilirubin (24 hours, preliminary data): 0.93 ± 0.20 | Change from baseline of total serum bilirubin (48 hours, preliminary data): 0.80 ± 2.79 | total serum bilirubin (4.5 mg/kg IM (N = 5), 48 hours, treated per protocol, preliminary data): 9.88 ± 2.8 | adjusted TSB, Mean (SD) (4.5 mg/kg IM, 6 h, LOCF): −4.49 (11.322) % | change from baseline in adjusted TSB, Mean (SD) (4.5 mg/kg IM, 6 h, LOCF): 4.70 (4.583) % | change from baseline in adjusted TSB, Median (4.5 mg/kg IM, 6 h, LOCF): 4.10% | change from baseline in unadjusted TSB, Mean (SD) (4.5 mg/kg IM, 6 h, LOCF): 1.69 (0.493) mg/dL | change from baseline in unadjusted TSB, Median (4.5 mg/kg IM, 6 h, LOCF): 1.61 mg/dL | unadjusted TSB, Mean (SD) (4.5 mg/kg IM, 6 h, LOCF): 11.27 (2.074) mg/dL | unadjusted TSB, Median (4.5 mg/kg IM, 6 h, LOCF): 11.25 mg/dL | change from baseline in adjusted TSB, LS mean (SEM) [12]: 4.03 (2.697) % | change from baseline in adjusted TSB, LS mean difference versus placebo [12]: −0.35% | change from baseline in unadjusted TSB, LS Mean (SEM) [12]: 1.62 (0.293) mg/dL | change from baseline in unadjusted TSB, LS Mean Difference versus placebo [12]: 0.03 mg/dL | change from baseline in adjusted TSB, LS mean difference versus placebo, MMRM (4.5 mg/kg IM, 6 h): −2.38% | change from baseline in adjusted TSB, LS means (SEM), MMRM (4.5 mg/kg IM, 6 h): 2.00 (2.825) % | adjusted TSB, Mean (SD) (4.5 mg/kg IM, 12 h, LOCF): −7.80 (9.906) % | change from baseline in adjusted TSB, Mean (SD) (4.5 mg/kg IM, 12 h, LOCF): 1.39 (6.394) % | change from baseline in adjusted TSB, Median (4.5 mg/kg IM, 12 h, LOCF): −0.70% | change from baseline in unadjusted TSB, Mean (SD) (4.5 mg/kg IM, 12 h, LOCF): 1.89 (0.421) mg/dL | change from baseline in unadjusted TSB, Median (4.5 mg/kg IM, 12 h, LOCF): 1.92 mg/dL | unadjusted TSB, Mean (SD) (4.5 mg/kg IM, 12 h, LOCF): 11.48 (1.924) mg/dL | unadjusted TSB, Median (4.5 mg/kg IM, 12 h, LOCF): 11.27 mg/dL | change from baseline in adjusted TSB, LS mean (SEM) [13]: 2.17 (3.960) % | change from baseline in adjusted TSB, LS mean difference versus placebo [13]: −4.96% | change from baseline in unadjusted TSB, LS Mean (SEM) [13]: 1.95 (0.453) mg/dL | change from baseline in unadjusted TSB, LS Mean Difference versus placebo [13]: -0.65 mg/dL | change from baseline in adjusted TSB, LS mean difference versus placebo, MMRM (4.5 mg/kg IM, 12 h): −8.38% | change from baseline in adjusted TSB, LS means (SEM), MMRM (4.5 mg/kg IM, 12 h): −2.41 (3.856) % | adjusted TSB, Mean (SD) (4.5 mg/kg IM, 24 h, LOCF): −24.66 (15.145) % | change from baseline in adjusted TSB, Mean (SD) (4.5 mg/kg IM, 24 h, LOCF): −15.48 (18.694) %
